{"source": "patent US8637510B2", "about": "“Morpholinothiazoles as alpha 7 positive allosteric modulators” (Janssen Pharmaceutica NV, priority 2009, dated 2014)", "key": {"human alpha 7-wt nAChR": {"molecular_target": "T1, human alpha 7-wt nAChR (Homo sapiens, UniProt P36544)", "T1 construct": "expressed in transfected cells", "T1 sequence (P36544 23-502)": "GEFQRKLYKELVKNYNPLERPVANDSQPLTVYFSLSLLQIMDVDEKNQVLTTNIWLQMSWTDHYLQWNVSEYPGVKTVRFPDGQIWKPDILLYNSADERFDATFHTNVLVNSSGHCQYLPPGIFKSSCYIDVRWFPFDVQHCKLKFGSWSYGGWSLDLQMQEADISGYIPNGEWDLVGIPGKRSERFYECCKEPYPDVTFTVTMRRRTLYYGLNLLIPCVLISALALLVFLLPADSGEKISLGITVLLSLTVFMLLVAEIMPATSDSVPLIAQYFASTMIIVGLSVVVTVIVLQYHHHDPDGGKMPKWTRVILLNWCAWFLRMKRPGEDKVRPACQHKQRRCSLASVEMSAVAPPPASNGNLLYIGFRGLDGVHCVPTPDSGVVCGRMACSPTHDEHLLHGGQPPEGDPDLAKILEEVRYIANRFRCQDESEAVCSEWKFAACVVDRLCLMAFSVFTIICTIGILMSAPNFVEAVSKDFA", "assay": "Ca2+ flux imaging (FDSS) (Protocol B)", "type": "cell-based", "details": "for Emax: efficacy of 100 μM choline defined as 100% in the absence of a PAM, read-out: a7-PAM-G_[33]_Eff_Curve_FI % Efficacy; for EC50: potentiation of 100 μM choline, compounds 0.01 μM to 30 μM, read-out: a7-PAM-G_[33]_pEC50 pEC50 (converted)", "in_short": "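Fluo-4AM-loaded cells expressing human α7-wt nAChR, in HBSS with 10 mM HEPES, 5 mM CaCl2, 0.1% BSA, received compound (0.01–30 μM), typically 10 min before 100 μM choline, with calcium flux read in real time. Potentiation is relative to choline alone (100%); EC50 from sigmoidal curves.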"}, "DBA/2 mice": {"tested_on": "DBA/2 mice", "assay": "Auditory evoked potential test in DBA/2 mice", "type": "in vivo, mouse", "details": "s.c.; male DBA/2 mice; TC ratio vs baseline, p<0.05", "from_the_text": "A number of compounds according to the invention have proven active in the auditory evoked potential test. […] The DBA/2 mouse has proven to be a useful model of schizophrenia-like sensory processing deficits. Human studies of nicotine effects on sensory processing predicted the results in the DBA/2 mouse and studies with the selective alpha 7 agonist GTS-21 in DBA/2 mice, predicted the effects in humans. This model of sensory gating ability therefore has high translational relevance.\nThe vehicle used was 20% hydroxypropyl-β-cyclodextrin (HP-β-CD) in water, acidified slightly with a few drops of tartaric acid. Both drug solution and vehicle were administered s.c. in a volume of 4 ml/kg. […]\nThe ratio of the P20-N40 amplitude of response to the second (test) stimulus and the first (conditioning) stimulus provides a measure of sensory inhibition; the ratio of the test to the conditioning amplitude (TC ratio) is 0.5 or less for most rodent strains and normal humans. […] The maximum negativity between 20 and 60 ms after the two stimuli was selected as the N40 wave and measured relative to the preceding positivity, the P20 wave. The amplitude from the P20 to the N40 wave was determined for both the conditioning and the test response. […]\nAll data were analyzed by multivariate analysis of variance with repeated measures. […]"}}}
{"smiles": "Cc1cc(-c2sc(N3C[C@@H](C)O[C@@H](C)C3)nc2CNC(=O)CC2CC2)cc(C)n1", "note": "[Compound 1, N-[[2-[(2R,6S)-2,6-dimethyl-4-morpholinyl]-5-(2,6-dimethyl-4-pyridinyl)-4-thiazolyl]methyl]-cyclopropaneacetamide]", "values": [{"measurement": "Emax", "setting": "human alpha 7-wt nAChR", "value": 796, "unit": "%"}, {"measurement": "EC50", "setting": "human alpha 7-wt nAChR", "value": 186, "unit": "nM"}, {"measurement": "lowest active dose", "setting": "DBA/2 mice", "value": 0.63, "unit": "mg/kg"}, {"measurement": "melting point", "value": 174, "unit": "°C"}]}
{"smiles": "Cc1cc(-c2sc(N3C[C@@H](C)O[C@@H](C)C3)nc2CNC(=O)c2conc2C)cc(C)n1", "note": "[Compound 18, N-[[2-[(2R,6S)-2,6-dimethyl-4-morpholinyl]-5-(2,6-dimethyl-4-pyridinyl)-4-thiazolyl]methyl]-3-methyl-4-isoxazolecarboxamide]", "values": [{"measurement": "Emax", "setting": "human alpha 7-wt nAChR", "value": 815, "unit": "%"}, {"measurement": "EC50", "setting": "human alpha 7-wt nAChR", "value": 380, "unit": "nM"}, {"measurement": "lowest active dose", "setting": "DBA/2 mice", "value": 0.04, "unit": "mg/kg"}, {"measurement": "melting point", "value": 141, "unit": "°C"}]}
